SMILES strings stand for the structures.

The first data set can be described thus: Preservation stability of the coating liquid. The note with it: coating liquid stored for 2 months shielded from light at 0° C.; appearance and GPC. Type of data set: physicochemical. As for the experimental part: The preservation stability of the coating liquid was evaluated on a scale of A to E on the basis of the state of the coating liquid that was stored for 2 months under a condition where the coating liquid was shielded from light at 0° C.
A: No visual change in the appearance of the coating liquid was confirmed. A GPC analysis of the coating liquid confirmed that the change in the composition of the coating liquid was 1% or less.
B: No visual change in the appearance of the coating liquid was confirmed. A GPC analysis of the coating liquid confirmed that the change in the composition of the coating liquid was 2% or less.
C: A visual change in the appearance of the coating liquid was confirmed; a trace amount of insoluble components were confirmed, or a GPC analysis of the coating liquid confirmed that the change in the composition of the coating liquid was 3% or less.
D: A visual change in the appearance of the coating liquid was confirmed; insoluble components were confirmed. The ratio of the weight of the insoluble components to the total solid content was 5% or less.
E: A large amount of insoluble components were visually confirmed. The ratio of the weight of the insoluble components to the total solid content was 5% or more.
As for `C=CC(=O)OCCCCOC(=O)C1CCC(C(=O)OC2CCC(C(=O)Oc3ccc(OC(=O)C4CCC(OC(=O)C5CCC(C(=O)OCCCCOC(=O)C=C)CC5)CC4)c(/C=N/N(CCC)c4nc5ccccc5s4)c3)CC2)CC1` (stereo not shown) [1-f-101], the Preservation stability result was “A (No visual change in the appearance of the coating liquid was confirmed. A GPC analysis of the coating liquid confirmed that the change in the composition of the coating liquid was 1% or less.)”.

As for `C=CC(=O)OCCCOc1ccc(OC(=O)C2CCC(C(=O)OCCc3ccc(OC(=O)C4CCC(C(=O)Oc5ccc(OCCCOC(=O)C=C)cc5)CC4)c(C=NNc4nc5ccccc5s4)c3)CC2)cc1` (stereo not shown) [1-c-13], the Preservation stability entry is “A (No visual change in the appearance of the coating liquid was confirmed. A GPC analysis of the coating liquid confirmed that the change in the composition of the coating liquid was 1% or less.)”.

Take `C=CC(=O)Oc1ccc(C(=O)Oc2ccc(OC(=O)c3ccc(OC(=O)C=C)cc3)c(/C=N/Nc3nc4ccccc4s3)c2)cc1` [1-g-35]: the Preservation stability result was “B (No visual change in the appearance of the coating liquid was confirmed. A GPC analysis of the coating liquid confirmed that the change in the composition of the coating liquid was 2% or less.)”.

On to `C=CC(=O)OCCCCCCOc1ccc(C#Cc2ccc(C#Cc3ccc(OCCCCCCOC(=O)C=C)cc3)c(/C=N/Nc3nc4ccccc4s3)c2)cc1` [1-c-68], for which the Preservation stability entry is “B (No visual change in the appearance of the coating liquid was confirmed. A GPC analysis of the coating liquid confirmed that the change in the composition of the coating liquid was 2% or less.)”.

Regarding `C=CC(=O)OCCCCOc1ccc(C(=O)OCCc2ccc(CCOC(=O)c3ccc(OCCCCOC(=O)C=C)cc3)c(/C=N/Nc3nc4ccccc4s3)c2)cc1` [1-c-10], the Preservation stability result is reported as “A (No visual change in the appearance of the coating liquid was confirmed. A GPC analysis of the coating liquid confirmed that the change in the composition of the coating liquid was 1% or less.)”.

Turning to `C=CC(=O)OCCCCCCOc1ccc(OC(=O)C2CCC(COc3ccc(OCC4CCC(C(=O)Oc5ccc(OCCCCCCOC(=O)C=C)cc5)CC4)c(/C=N/N(C(=O)C=C)c4nc5ccccc5s4)c3)CC2)cc1` (stereo not shown) [1-cmn-108], the Preservation stability result is on record as “A (No visual change in the appearance of the coating liquid was confirmed. A GPC analysis of the coating liquid confirmed that the change in the composition of the coating liquid was 1% or less.)”.

For `C=CC(=O)OCCCCOC(=O)C1CCC(C(=O)OC2CCC(C(=O)Oc3ccc(OC(=O)C4CCC(OC(=O)C5CCC(C(=O)OCCCCOC(=O)C=C)CC5)CC4)c(/C=N/N(CC)c4nc5ccccc5s4)c3)CC2)CC1` (stereo not shown) [1-f-102], the Preservation stability result is recorded as “A (No visual change in the appearance of the coating liquid was confirmed. A GPC analysis of the coating liquid confirmed that the change in the composition of the coating liquid was 1% or less.)”.

In the case of `C=CC(=O)OCCCCOC(=O)/C=C/c1ccc(C(=O)Oc2ccc(OC(=O)c3ccc(/C=C/C(=O)OCCCCOC(=O)C=C)cc3)c(/C=N/N(c3ccccc3)c3ccccc3)c2)cc1` [1-j-64], the Preservation stability result is reported as “B (No visual change in the appearance of the coating liquid was confirmed. A GPC analysis of the coating liquid confirmed that the change in the composition of the coating liquid was 2% or less.)”.

Take `C=CC(=O)OCCCOc1ccc(OC(=O)C2CCC(COc3ccc(OCC4CCC(C(=O)Oc5ccc(OCCCOC(=O)C=C)cc5)CC4)c(/C=N/Nc4nc5ccccc5s4)c3)CC2)cc1` (stereo not shown) [1-cm-89]: the Preservation stability entry is on record as “A (No visual change in the appearance of the coating liquid was confirmed. A GPC analysis of the coating liquid confirmed that the change in the composition of the coating liquid was 1% or less.)”.

Turning to `C=CC(=O)OCCCOC(=O)/C=C/c1ccc(C(=O)Oc2ccc(OC(=O)c3ccc(/C=C/C(=O)OCCCOC(=O)C=C)cc3OC)c(/C=N/Nc3nc4ccccc4s3)c2)c(OC)c1` [1-j-57], the Preservation stability entry is reported as “B (No visual change in the appearance of the coating liquid was confirmed. A GPC analysis of the coating liquid confirmed that the change in the composition of the coating liquid was 2% or less.)”.

With `C=CC(=O)OCCCOc1ccc(C#Cc2ccc(C#Cc3ccc(OCCCOC(=O)C=C)cc3)c(/C=N/Nc3nc4ccccc4s3)c2)cc1` [1-c-67], the Preservation stability result is listed as “B (No visual change in the appearance of the coating liquid was confirmed. A GPC analysis of the coating liquid confirmed that the change in the composition of the coating liquid was 2% or less.)”.

On to `C=CC(=O)OCCCCCCOc1ccc(/C=C/C(=O)Oc2ccc(OC(=O)/C=C/c3ccc(OCCCCCCOC(=O)C=C)cc3)c(/C=N/Nc3nc4ccccc4s3)c2)cc1` [1-c-43], for which the Preservation stability entry is on record as “B (No visual change in the appearance of the coating liquid was confirmed. A GPC analysis of the coating liquid confirmed that the change in the composition of the coating liquid was 2% or less.)”.

Turning to `C=CC(=O)OCCCOc1ccc(/C=C/C(=O)Oc2ccc(OC(=O)/C=C/c3ccc(OCCCOC(=O)C=C)c(OC)c3)c(/C=N/Nc3nc4ccccc4s3)c2)cc1OC` [1-c-46], the Preservation stability result was “B (No visual change in the appearance of the coating liquid was confirmed. A GPC analysis of the coating liquid confirmed that the change in the composition of the coating liquid was 2% or less.)”.

With `C=CC(=O)OCCCCOc1ccc(CCC(=O)Oc2ccc(OC(=O)CCc3ccc(OCCCCOC(=O)C=C)cc3)c(/C=N/Nc3nc4ccccc4s3)c2)cc1` [1-c-50], the Preservation stability result is listed as “A (No visual change in the appearance of the coating liquid was confirmed. A GPC analysis of the coating liquid confirmed that the change in the composition of the coating liquid was 1% or less.)”.

As for `C=CC(=O)OCCCCCCOc1ccc(OC(=O)C2CCC(C(=O)OCCc3ccc(OC(=O)C4CCC(C(=O)Oc5ccc(OCCCCCCOC(=O)C=C)cc5)CC4)c(/C=N/Nc4cccc5ccccc45)c3)CC2)cc1` (stereo not shown) [1-c-42], the Preservation stability result is “B (No visual change in the appearance of the coating liquid was confirmed. A GPC analysis of the coating liquid confirmed that the change in the composition of the coating liquid was 2% or less.)”.

With `C=CC(=O)OCCCCCCOc1ccc(C(=O)Oc2ccc(OC(=O)c3ccc(OCCCCCCOC(=O)C=C)cc3)c(/C=N/N(CCCCCC)c3nc4ccccc4s3)c2)cc1` [1-cn-83], the Preservation stability entry is recorded as “A (No visual change in the appearance of the coating liquid was confirmed. A GPC analysis of the coating liquid confirmed that the change in the composition of the coating liquid was 1% or less.)”.

On to `C=CC(=O)OCCCOc1ccc(C(=O)OCCc2ccc(OC(=O)c3ccc(OCCCOC(=O)C=C)cc3)c(/C=N/Nc3nc4cc(C#N)ccc4s3)c2)cc1` [1-c-25], for which the Preservation stability result was “B (No visual change in the appearance of the coating liquid was confirmed. A GPC analysis of the coating liquid confirmed that the change in the composition of the coating liquid was 2% or less.)”.

With `C=CC(=O)OCCCCCCOc1ccc(CCC(=O)Oc2ccc(OC(=O)CCc3ccc(OCCCCCCOC(=O)C=C)cc3)c(/C=N/Nc3nc4ccccc4s3)c2)cc1` [1-c-51], the Preservation stability result is listed as “A (No visual change in the appearance of the coating liquid was confirmed. A GPC analysis of the coating liquid confirmed that the change in the composition of the coating liquid was 1% or less.)”.

`C=CC(=O)OCCCCCCOc1ccc(C(=O)OCCc2ccc(OC(=O)c3ccc(OCCCCCCOC(=O)C=C)cc3)c(/C=N/Nc3nc(-c4ccc5ccccc5c4)cs3)c2)cc1` [1-c-34]: the Preservation stability entry is given as “B (No visual change in the appearance of the coating liquid was confirmed. A GPC analysis of the coating liquid confirmed that the change in the composition of the coating liquid was 2% or less.)”.

As for `C=CC(=O)OCCCCCCOc1ccc(C(=O)Oc2ccc(C(=O)Oc3ccc(OCCCCCCOC(=O)C=C)cc3/C=N/Nc3nc4ccccc4s3)cc2)cc1` [1-eh-72], the Preservation stability entry was “A (No visual change in the appearance of the coating liquid was confirmed. A GPC analysis of the coating liquid confirmed that the change in the composition of the coating liquid was 1% or less.)”.

In the case of `C=CC(=O)OCCCOc1ccc(OC(=O)C2CCC(COc3ccc(OCC4CCC(C(=O)Oc5ccc(OCCCOC(=O)C=C)cc5)CC4)c(/C=N/N(C(=O)C=C)c4nc5ccccc5s4)c3)CC2)cc1` (stereo not shown) [1-cmn-107], the Preservation stability result is listed as “A (No visual change in the appearance of the coating liquid was confirmed. A GPC analysis of the coating liquid confirmed that the change in the composition of the coating liquid was 1% or less.)”.

`C=CC(=O)OCCCCOc1ccc(C(=O)OCCc2ccc(OC(=O)c3ccc(OCCCCOC(=O)C=C)cc3)c(/C=N/N(CCCCCC)c3nc4ccc5ccccc5c4s3)c2)cc1` [1-c-40]: the Preservation stability entry is recorded as “A (No visual change in the appearance of the coating liquid was confirmed. A GPC analysis of the coating liquid confirmed that the change in the composition of the coating liquid was 1% or less.)”.

In the case of `C=CC(=O)OCCCOc1ccc(C(=O)Oc2ccc(OCCCOC(=O)C=C)cc2/C=N/Nc2nc3ccccc3s2)cc1` [1-e-69], the Preservation stability result was “A (No visual change in the appearance of the coating liquid was confirmed. A GPC analysis of the coating liquid confirmed that the change in the composition of the coating liquid was 1% or less.)”.

Take `C=CC(=O)OCCCCCCOc1ccc(C(=O)Oc2ccc(-c3ccc(OC(=O)c4ccc(OCCCCCCOC(=O)C=C)cc4)c(/C=N/Nc4nc5ccccc5s4)c3)cc2)cc1` [1-hk-84]: the Preservation stability result is reported as “A (No visual change in the appearance of the coating liquid was confirmed. A GPC analysis of the coating liquid confirmed that the change in the composition of the coating liquid was 1% or less.)”.

The same data set, now with this note: summary in words.
For `C=CC(=O)OCCCCCCOc1ccc(C(=O)Oc2ccc(-c3ccc(OC(=O)c4ccc(OCCCCCCOC(=O)C=C)cc4)c(/C=N/Nc4nc5ccccc5s4)c3)cc2)cc1` [1-hk-84], the Preservation stability entry was “high”.

The values above are taken from patent publication US10633353B2, “Polymerizable compound, composition, polymer, optically anisotropic body, liquid crystal display element, and organic EL display” (DIC Corporation, priority 2014, dated 2020).
